Results: PubChem BioAssay (NCI)
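A five-concentration, 48-hour dose response in 96-well plates underlies each endpoint, interpolated linearly between surrounding concentrations. GI50 = concentration required for 50% inhibition of growth. At the TGI there is no net growth.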

Columns and labels:
Assay in all cases: DTP human tumour cell line panel, 48 h
[1] = system: 786-0 renal
[2] = system: A498 renal
[3] = system: A549 NSCLC
[4] = system: ACHN renal
[5] = system: BT-549 breast
[6] = system: CCRF-CEM leukemia
[7] = system: COLO 205 colon
[8] = system: DU-145 prostate
[9] = system: EKVX NSCLC
[10] = system: HCC-2998 colon
[11] = system: HCT-116 colon
[12] = system: HCT-15 colon
[13] = system: HL-60(TB) leukemia
[14] = system: HOP-62 NSCLC
[15] = system: HOP-92 NSCLC
[16] = system: HS 578T breast
[17] = system: HT29 colon
[18] = system: IGROV1 ovarian
[19] = system: K-562 leukemia
[20] = system: KM12 colon
[21] = system: LOX IMVI melanoma
[22] = system: M14 melanoma
[23] = system: MALME-3M melanoma
[24] = system: MCF7 breast
[25] = system: MDA-MB-231 breast
[26] = system: MDA-MB-435
[27] = system: MDA-MB-468 breast
[28] = system: MOLT-4 leukemia
[29] = system: NCI-H226 lung
[30] = system: NCI-H23 lung
[31] = system: NCI-H460 lung
[32] = system: NCI-H522 lung
[33] = system: NCI/ADR-RES ovarian
[34] = system: OVCAR-3 ovarian
[35] = system: OVCAR-4 ovarian
[36] = system: OVCAR-5 ovarian
[37] = system: OVCAR-8 ovarian
[38] = system: PC-3 prostate
[39] = system: RPMI-8226 leukemia
[40] = system: RXF 393 renal
[41] = system: SF-268 CNS
[42] = system: SF-295 CNS
[43] = system: SF-539 CNS
[44] = system: SK-MEL-2 melanoma
[45] = system: SK-MEL-28 melanoma
[46] = system: SK-MEL-5 melanoma
[47] = system: SK-OV-3 ovarian
[48] = system: SN12C renal
[49] = system: SNB-19 CNS
[50] = system: SNB-75 CNS
[51] = system: SR leukemia
[52] = system: SW-620 colon
[53] = system: T-47D breast
[54] = system: TK-10 renal
[55] = system: U251 CNS
[56] = system: UACC-257 melanoma
[57] = system: UACC-62 melanoma
[58] = system: UO-31 renal

**Q.** Cc1cc(C(NC(=O)C2CC3(CC(Nc4cccc5c4C(=O)N(C4CCC(=O)NC4=O)C5=O)C3)C2)c2ccc3c(c2)OC(F)(F)O3)c(O)c2ncccc12 (stereo not drawn) was tested. Which GI50 [1] did it give?
**A.** 452 nM

**Q.** What about the TGI [1] of the same compound?
**A.** > 100 µM

**Q.** What about the GI50 [2] of the same compound?
**A.** > 100 µM

**Q.** And the TGI [2]?
**A.** > 100 µM

**Q.** And the GI50 [3]?
**A.** 418 nM

**Q.** What about the TGI [3] of the same compound?
**A.** > 100 µM

**Q.** And the GI50 [4]?
**A.** 359 nM

**Q.** What about the TGI [4] of the same compound?
**A.** > 100 µM

**Q.** What about the GI50 [5] of the same compound?
**A.** 224 nM

**Q.** What about the TGI [5] of the same compound?
**A.** > 100 µM

**Q.** And the GI50 [6]?
**A.** 390 nM

**Q.** And the TGI [6]?
**A.** > 100 µM

**Q.** What about the GI50 [7] of the same compound?
**A.** 437 nM

**Q.** What about the TGI [7] of the same compound?
**A.** > 100 µM

**Q.** And the GI50 [8]?
**A.** 461 nM

**Q.** What about the TGI [8] of the same compound?
**A.** > 100 µM

**Q.** What about the GI50 [9] of the same compound?
**A.** 349 nM

**Q.** What about the TGI [9] of the same compound?
**A.** > 40.6 µM

**Q.** What about the GI50 [10] of the same compound?
**A.** 340 nM

**Q.** What about the GI50 [11] of the same compound?
**A.** 420 nM

**Q.** And the TGI [11]?
**A.** > 100 µM

**Q.** What about the GI50 [12] of the same compound?
**A.** 307 nM

**Q.** And the TGI [12]?
**A.** > 100 µM

**Q.** And the GI50 [13]?
**A.** 314 nM

**Q.** And the GI50 [14]?
**A.** 392 nM

**Q.** What about the TGI [14] of the same compound?
**A.** > 100 µM

**Q.** And the GI50 [15]?
**A.** 382 nM

**Q.** And the TGI [15]?
**A.** > 100 µM

**Q.** What about the GI50 [16] of the same compound?
**A.** 433 nM

**Q.** What about the TGI [16] of the same compound?
**A.** > 100 µM

**Q.** And the GI50 [17]?
**A.** 474 nM

**Q.** What about the TGI [17] of the same compound?
**A.** > 100 µM

**Q.** And the GI50 [18]?
**A.** 313 nM

**Q.** What about the TGI [18] of the same compound?
**A.** > 32.3 µM

**Q.** And the GI50 [19]?
**A.** 334 nM

**Q.** What about the TGI [19] of the same compound?
**A.** > 100 µM

**Q.** And the GI50 [20]?
**A.** 468 nM

**Q.** And the TGI [20]?
**A.** > 100 µM

**Q.** And the GI50 [21]?
**A.** 272 nM

**Q.** And the GI50 [22]?
**A.** 411 nM

**Q.** And the TGI [22]?
**A.** 2660 nM

**Q.** What about the GI50 [23] of the same compound?
**A.** 522 nM

**Q.** What about the TGI [23] of the same compound?
**A.** > 25.4 µM

**Q.** And the GI50 [24]?
**A.** 303 nM

**Q.** What about the TGI [24] of the same compound?
**A.** > 100 µM

**Q.** What about the GI50 [25] of the same compound?
**A.** 440 nM

**Q.** And the TGI [25]?
**A.** > 42.7 µM

**Q.** And the GI50 [26]?
**A.** 426 nM

**Q.** What about the TGI [26] of the same compound?
**A.** > 100 µM

**Q.** What about the GI50 [27] of the same compound?
**A.** 473 nM

**Q.** And the TGI [27]?
**A.** 3.13 µM

**Q.** And the GI50 [28]?
**A.** 344 nM

**Q.** And the TGI [28]?
**A.** > 100 µM

**Q.** What about the GI50 [29] of the same compound?
**A.** 434 nM

**Q.** And the TGI [29]?
**A.** > 23.9 µM

**Q.** What about the GI50 [30] of the same compound?
**A.** 352 nM

**Q.** What about the TGI [30] of the same compound?
**A.** 5.54 µM

**Q.** And the GI50 [31]?
**A.** 198 nM

**Q.** And the TGI [31]?
**A.** > 100 µM

**Q.** And the GI50 [32]?
**A.** 399 nM

**Q.** What about the TGI [32] of the same compound?
**A.** > 100 µM

**Q.** What about the GI50 [33] of the same compound?
**A.** 1600 nM

**Q.** What about the TGI [33] of the same compound?
**A.** 15.3 µM

**Q.** What about the GI50 [34] of the same compound?
**A.** 376 nM

**Q.** What about the TGI [34] of the same compound?
**A.** > 100 µM

**Q.** And the GI50 [35]?
**A.** 476 nM

**Q.** And the TGI [35]?
**A.** > 100 µM

**Q.** What about the GI50 [36] of the same compound?
**A.** 447 nM

**Q.** And the TGI [36]?
**A.** > 100 µM

**Q.** What about the GI50 [37] of the same compound?
**A.** 364 nM

**Q.** And the TGI [37]?
**A.** > 100 µM

**Q.** What about the GI50 [38] of the same compound?
**A.** 275 nM

**Q.** What about the TGI [38] of the same compound?
**A.** > 100 µM

**Q.** What about the GI50 [39] of the same compound?
**A.** 350 nM

**Q.** What about the TGI [39] of the same compound?
**A.** > 100 µM

**Q.** What about the GI50 [40] of the same compound?
**A.** 502 nM

**Q.** What about the TGI [40] of the same compound?
**A.** > 30.7 µM

**Q.** What about the GI50 [41] of the same compound?
**A.** 420 nM

**Q.** And the TGI [41]?
**A.** > 100 µM

**Q.** What about the GI50 [42] of the same compound?
**A.** 275 nM

**Q.** What about the TGI [42] of the same compound?
**A.** > 100 µM

**Q.** What about the GI50 [43] of the same compound?
**A.** 378 nM

**Q.** And the TGI [43]?
**A.** 3.18 µM

**Q.** What about the GI50 [44] of the same compound?
**A.** 375 nM

**Q.** What about the TGI [44] of the same compound?
**A.** > 100 µM

**Q.** What about the GI50 [45] of the same compound?
**A.** 405 nM

**Q.** And the TGI [45]?
**A.** > 100 µM

**Q.** And the GI50 [46]?
**A.** 226 nM

**Q.** What about the TGI [46] of the same compound?
**A.** 562 nM

**Q.** What about the GI50 [47] of the same compound?
**A.** 344 nM

**Q.** What about the TGI [47] of the same compound?
**A.** > 22.3 µM

**Q.** And the GI50 [48]?
**A.** 349 nM

**Q.** And the TGI [48]?
**A.** > 100 µM

**Q.** What about the GI50 [49] of the same compound?
**A.** 350 nM

**Q.** What about the TGI [49] of the same compound?
**A.** > 100 µM

**Q.** What about the GI50 [50] of the same compound?
**A.** 289 nM

**Q.** And the TGI [50]?
**A.** > 100 µM

**Q.** What about the GI50 [51] of the same compound?
**A.** 340 nM

**Q.** What about the TGI [51] of the same compound?
**A.** > 100 µM

**Q.** What about the GI50 [52] of the same compound?
**A.** 531 nM

**Q.** What about the TGI [52] of the same compound?
**A.** > 100 µM

**Q.** And the GI50 [53]?
**A.** 393 nM

**Q.** What about the TGI [53] of the same compound?
**A.** > 100 µM

**Q.** And the GI50 [54]?
**A.** 474 nM

**Q.** And the TGI [54]?
**A.** > 100 µM

**Q.** What about the GI50 [55] of the same compound?
**A.** 210 nM

**Q.** What about the TGI [55] of the same compound?
**A.** > 100 µM

**Q.** What about the GI50 [56] of the same compound?
**A.** 718 nM

**Q.** What about the TGI [56] of the same compound?
**A.** > 100 µM

**Q.** And the GI50 [57]?
**A.** 282 nM

**Q.** What about the TGI [57] of the same compound?
**A.** 1140 nM

**Q.** What about the GI50 [58] of the same compound?
**A.** 295 nM

**Q.** What about the TGI [58] of the same compound?
**A.** 2290 nM
